Results as given in patent publication US10028956B2, “Methods of treating various cancers using an AXL/cMET inhibitor in combination with other agents” (Ignyta, Inc., priority 2013, dated 2018).
Marks after values point to notes of the source that are not given here.

What was measured:
[1] = system: 298 kinases; assay: Kinome selectivity against 298 kinases; type: biochemical
[2] = PK in monkey; conditions: in vivo
[3] = system: EBC-1 Human NSCLC xenografts; assay: Anti-tumor efficacy in EBC-1 NSCLC xenografts; type: in vivo, mice
Excerpt: The human NSCL cancer cell line, EBC-1 was purchased from ATCC (American Tissue Culture Collection, Manassas, Va.) and cultured in DMEM medium with 10% fetal bovine serum (FBS, Cat# SH3007003, Hyclone Laboratory Inc, Logan, Utah). Female Nu/Nu mice (6-8 weeks, Charles River Laboratory, Wilmington, Mass.) were maintained 5/cage in microisolator units on a standard laboratory diet (Teklad Labchow, Harlan Teklad, Madison, Wis.). Animals were housed under humidity- and temperature-controlled conditions and the light/dark cycle was set at 12-hour intervals. Mice were quarantined at least 1 week prior to experimental manipulation. […] The mice were then monitored daily. […] The length (L) and width (W) of each tumor was measured with a vernier caliper and the mouse body weight was determined every 2-3 days. The tumor volumes were then calculated with the formula of 0.5236*L*W*(L+W)/2. […] Plasma and tumor samples were obtained at 2 hours post final dose at each dose level, and the compound levels in plasma and tumor lysates were measured by LC-MS/MS. The TGI values were calculated at the end of study by comparing the tumor volumes (TV) of each CEP-40783-treatment group with those of vehicle-treated group with the following formula: 1-(the last day TV of compound-treated group/the last day TV of vehicle-treated group).

[4] = system: 4T1-Luc2 murine mammary carcinoma cells; assay: 4T1-Luc2 systemic dissemination; type: in vivo, mice
Description: The murine breast cancer cell line 4T1-luciferase tagged cell line generated by stable transfection of the firefly luciferase gene expressed from the SV40 promoter was purchased from Caliper Life Sciences. The cells were grown in DMEM medium supplemented with 10% fetal bovine serum (FBS, Cat^# SH3007003, Hyclone, Logan, Utah). D-Luciferin firefly/potassium salt (Cat. # L-8220) was purchased from Biosynth International, Inc., Itasca, Ill.). Female Balb-c mice (6-8 weeks) were purchased from Charles River laboratories. […] Two days later, the mouse body weights were measured twice a week and the mice were subjected for full body in vivo imaging thrice a week. Treatments were given for a total of 23 days, with 21 days post tumor cell seeding. Bioluminescence image analysis was performed at the end of the study using a Caliper Life Sciences (Xenogen) Spectrum in vivo imaging machine. Each cage of five mice was anesthetized using isofluorane and imaged for a series of time points from 0.5-5 minutes max. Image analysis was performed using Living Image Software (vs. 4.0, 2010) using subjective but equally sized gates or regions of interest (ROIs) overlaid on each animal image. Counts were converted to average radiance or mean photon flux; expressed as photons per second per cm2 of surface area, (p/s/cm2/sr). […]

[5] = system: CTG-0157 primary NSCLC human TumorGraft; assay: NSCLC TumorGraft model CTG-0157; type: in vivo, mice; conditions: CTG-0157, 14 days
Description: (§1) Methods (for the experiments shown in FIGS. 10 and 11) • Female immunocompromised nu/nu mice (Harlan) between 6-9 weeks of age were housed on irradiated papertwist-enriched ⅛″ corncob bedding (Sheperd) in individual HEPA ventilated cages (Innocage® IVC, Innovive USA) on a 12-hour light-dark cycle at 68-74° F. (20-23° C.) and 30-70% humidity. Animals were fed water ad libitum (reverse osmosis, 2 ppm Cl2) and an irradiated Test rodent diet (Teklad 2919) consisting of 19% protein, 9% fat, and 4% fiber. • Tumor Models: Champions TumorGraft models of NSCLC are owned by Champions Oncology. In this study, animals were implanted unilaterally on the right flank with tumor fragments harvested from host animals. […] Erlotinib (manufacturer: OSI Pharmaceuticals; National Drug Code: 50242-062-01; Lot #: US0002) was formulated using 100% PEG-400 as the vehicle according to manufacturer's specifications.
Efficacy measurements: Beginning Day 0, tumor dimensions were measured twice weekly by digital caliper (Fowler Ultra-Cal IV) and data including individual and mean estimated tumor volumes (Mean TV±SEM) were recorded for each group; tumor volume was calculated using the formula TV=width^2×length×0.52. At study completion, percent tumor growth inhibition (% TGI) values were calculated and reported for each treatment group (T) versus control (C) using initial (i) and final (f) tumor measurements by the formula: % TGI=1−Tf−Ti/Cf−C; single agent or combination therapies resulting in a TGI>50 at study completion are considered active in the tested model at the evaluated treatment regimen according to NCI guidelines. […] If the PR persisted until study completion, percent tumor regression (% TR) was determined using the formula: % TR=1−Tf/Ti×100; a mean value was calculated if multiple PR mice occurred in one group. […] Statistical differences in tumor volume were determined using a two-tailed One-Way Analysis of Variance (ANOVA) followed by the Dunett's multiple comparisons test comparing treated groups with control and combinations with standard agent alone when possible. […]

[6] = system: CTG-0165 erlotinib-insensitive primary NSCLC human TumorGraft; assay: NSCLC TumorGraft model CTG-0165; type: in vivo, mice; conditions: for % Tumor Growth Inhibition: CTG-0165, 37 days
Description: as §1
(§2) Efficacy measurements: Beginning Day 0, tumor dimensions were measured twice weekly by digital caliper (Fowler Ultra-Cal IV) and data including individual and mean estimated tumor volumes (Mean TV±SEM) were recorded for each group; tumor volume was calculated using the formula TV=width^2×length×0.52. At study completion, percent tumor growth inhibition (% TGI) values were calculated and reported for each treatment group (T) versus control (C) using initial (i) and final (f) tumor measurements by the formula: % TGI=1−Tf−Ti/Cf−C; single agent or combination therapies resulting in a TGI>50 at study completion are considered active in the tested model at the evaluated treatment regimen according to NCI guidelines. Individual mice reporting a tumor volume ≤50% of the Day 0 measurement for two consecutive measurements over a seven day period were considered partial responders (PR). If the PR persisted until study completion, percent tumor regression (% TR) was determined using the formula: % TR=1−Tf/Ti×100; a mean value was calculated if multiple PR mice occurred in one group. Individual mice lacking palpable tumors (<4×4 mm^2 for two consecutive measurements over a seven day period) were classified as complete responders (CR); a CR that persisted until study completion was considered a tumor-free survivor (TFS). TFS animals are excluded from efficacy calculations. Statistical differences in tumor volume were determined using a two-tailed One-Way Analysis of Variance (ANOVA) followed by the Dunett's multiple comparisons test comparing treated groups with control and combinations with standard agent alone when possible. All data collected in this study was managed electronically and stored on a redundant server system.

[7] = system: CTG-0170 erlotinib-insensitive primary NSCLC human TumorGraft; assay: NSCLC TumorGraft model CTG-0170; type: in vivo, mice; conditions: for % Tumor Growth Inhibition: CTG-0170, 10 days
Description: as §1, §2

[8] = intravenous, 0.5 mg/kg i.v. and p.o.

**Q.** Which “S90 (fraction of kinases showing >90% inhibition at 1 μM)” value [1] does the source give for `COc1cc2nccc(Oc3ccc(NC(=O)c4cn(C(C)C)c(=O)n(-c5ccc(F)cc5)c4=O)cc3F)c2cc1OC` [CEP-40783, 3-(4-Fluorophenyl)-1-isopropyl-2,4-dioxo-1,2,3,4-tetrahydropyrimidine-5-carboxylic acid [4-(6,7-dimethoxyquinolin-4-yloxy)-3-fluorophenyl]-amide] here?
**A.** 0.04

**Q.** What about the Cmax ([2]; 0.5 mg/kg i.v. and p.o.) of the same molecule?
**A.** 260 ng/mL

**Q.** What about the Vd [2, 8] of the same molecule?
**A.** 1.2 L/kg

**Q.** What about the clearance [2, 8] of the same molecule?
**A.** 2.2 mL/min/kg

**Q.** What about the half-life ([2]; iv, 0.5 mg/kg i.v., read-out: t1/2 i.v. (converted)) of the same molecule?
**A.** 14.5 h

**Q.** What about the bioavailability ([2]; oral, 0.5 mg/kg i.v. and p.o.) of the same molecule?
**A.** 77%

**Q.** And the AUC(0-t) ([2]; po, 0.5 mg/kg p.o.)?
**A.** 3030 ng·h/mL

**Q.** And the “anti-tumor efficacy (tumor volume)” value ([3]; 3 mg/kg oral qd)?
**A.** tumor stasis and partial regressions

**Q.** What about the “anti-tumor efficacy (tumor volume)” value ([3]; 10 mg/kg and 30 mg/kg oral qd) of the same molecule?
**A.** tumor regressions

**Q.** What about the “systemic 4T1 mammary tumor dissemination” value ([4]; 1 mg/kg po qd) of the same molecule?
**A.** significant, albeit of lesser magnitude, reduction

**Q.** What about the “systemic 4T1 mammary tumor dissemination” value ([4]; 10 mg/kg and 30 mg/kg po qd) of the same molecule?
**A.** highly significant reductions

**Q.** And the “% Tumor Growth Inhibition” value ([5]; 10 mg/kg po/qd)?
**A.** 3%

**Q.** What about the “% Tumor Growth Inhibition” value ([5]; 30 mg/kg po/qd) of the same molecule?
**A.** 85%*†

**Q.** And the “% Tumor Growth Inhibition” value ([6]; 10 mg/kg po/qd)?
**A.** 116%*†

**Q.** What about the “% Tumor Growth Inhibition” value ([6]; 30 mg/kg po/qd) of the same molecule?
**A.** 118%*†

**Q.** What about the “efficacy in erlotinib-insensitive TumorGraft” value ([6]; CTG-0165, oral 10 mg/kg and 30 mg/kg) of the same molecule?
**A.** tumor regressions

**Q.** What about the “% Tumor Growth Inhibition” value ([7]; 10 mg/kg po/qd) of the same molecule?
**A.** 104%*†

**Q.** And the “% Tumor Growth Inhibition” value ([7]; 30 mg/kg po/qd)?
**A.** 107%*†

**Q.** And the “efficacy in erlotinib-insensitive TumorGraft” value ([7]; CTG-0170, oral 10 mg/kg and 30 mg/kg)?
**A.** tumor regressions
